Data from ChEMBL document CHEMBL3991601, “The target landscape of clinical kinase drugs” (Science, 2017).
Activity calls are given as the source filed them. Rule as the data show it, for most assays here: actives have a measured Kd and inactives only a lower limit.

Tests used:
Activin receptor type-1 = molecular target: T1, Activin receptor type-1 (Homo sapiens, UniProt Q04771)
T1 sequence (Q04771 whole entry): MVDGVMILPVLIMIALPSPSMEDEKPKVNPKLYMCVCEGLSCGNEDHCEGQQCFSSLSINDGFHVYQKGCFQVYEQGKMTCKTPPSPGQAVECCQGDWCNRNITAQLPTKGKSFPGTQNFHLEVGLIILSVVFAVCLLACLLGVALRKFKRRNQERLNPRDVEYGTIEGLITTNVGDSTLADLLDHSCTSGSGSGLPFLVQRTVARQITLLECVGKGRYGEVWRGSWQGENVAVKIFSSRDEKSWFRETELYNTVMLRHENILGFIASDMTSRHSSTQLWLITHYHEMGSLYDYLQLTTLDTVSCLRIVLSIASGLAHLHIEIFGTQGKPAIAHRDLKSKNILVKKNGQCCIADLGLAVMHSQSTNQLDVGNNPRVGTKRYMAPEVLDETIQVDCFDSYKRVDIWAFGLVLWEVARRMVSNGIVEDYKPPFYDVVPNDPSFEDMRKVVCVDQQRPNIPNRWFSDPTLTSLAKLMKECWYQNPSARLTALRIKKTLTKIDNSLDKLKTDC

Aurora kinase A = molecular target: T2, Aurora kinase A (Homo sapiens, UniProt O14965)
T2 sequence (O14965 whole entry): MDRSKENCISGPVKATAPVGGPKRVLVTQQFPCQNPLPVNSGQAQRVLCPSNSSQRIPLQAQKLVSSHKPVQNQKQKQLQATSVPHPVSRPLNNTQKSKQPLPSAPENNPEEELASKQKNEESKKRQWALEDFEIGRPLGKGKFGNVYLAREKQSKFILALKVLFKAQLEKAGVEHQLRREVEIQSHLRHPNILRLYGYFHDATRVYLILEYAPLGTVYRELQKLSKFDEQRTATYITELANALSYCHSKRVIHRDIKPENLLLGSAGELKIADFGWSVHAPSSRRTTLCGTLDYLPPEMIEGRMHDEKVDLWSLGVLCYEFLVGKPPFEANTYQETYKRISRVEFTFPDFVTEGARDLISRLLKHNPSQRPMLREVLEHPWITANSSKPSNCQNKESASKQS

[1] = molecular target: Calcium/calmodulin-dependent protein kinase type II subunit delta (Homo sapiens, UniProt Q13557)
dCTP pyrophosphatase 1 = molecular target: T3, dCTP pyrophosphatase 1 (Homo sapiens, UniProt Q9H773)
T3 sequence (Q9H773 whole entry): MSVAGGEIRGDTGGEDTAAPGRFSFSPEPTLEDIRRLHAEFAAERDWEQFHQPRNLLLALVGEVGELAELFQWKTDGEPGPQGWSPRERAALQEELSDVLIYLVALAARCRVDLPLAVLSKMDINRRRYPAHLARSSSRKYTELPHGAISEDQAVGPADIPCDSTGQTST

LIM domain kinase 2 = LIM domain kinase 2 (Homo sapiens, UniProt P53671)
[2] = molecular target: T4, Mitogen-activated protein kinase kinase kinase kinase 3 (Homo sapiens, UniProt Q8IVH8)
T4 sequence (Q8IVH8 whole entry): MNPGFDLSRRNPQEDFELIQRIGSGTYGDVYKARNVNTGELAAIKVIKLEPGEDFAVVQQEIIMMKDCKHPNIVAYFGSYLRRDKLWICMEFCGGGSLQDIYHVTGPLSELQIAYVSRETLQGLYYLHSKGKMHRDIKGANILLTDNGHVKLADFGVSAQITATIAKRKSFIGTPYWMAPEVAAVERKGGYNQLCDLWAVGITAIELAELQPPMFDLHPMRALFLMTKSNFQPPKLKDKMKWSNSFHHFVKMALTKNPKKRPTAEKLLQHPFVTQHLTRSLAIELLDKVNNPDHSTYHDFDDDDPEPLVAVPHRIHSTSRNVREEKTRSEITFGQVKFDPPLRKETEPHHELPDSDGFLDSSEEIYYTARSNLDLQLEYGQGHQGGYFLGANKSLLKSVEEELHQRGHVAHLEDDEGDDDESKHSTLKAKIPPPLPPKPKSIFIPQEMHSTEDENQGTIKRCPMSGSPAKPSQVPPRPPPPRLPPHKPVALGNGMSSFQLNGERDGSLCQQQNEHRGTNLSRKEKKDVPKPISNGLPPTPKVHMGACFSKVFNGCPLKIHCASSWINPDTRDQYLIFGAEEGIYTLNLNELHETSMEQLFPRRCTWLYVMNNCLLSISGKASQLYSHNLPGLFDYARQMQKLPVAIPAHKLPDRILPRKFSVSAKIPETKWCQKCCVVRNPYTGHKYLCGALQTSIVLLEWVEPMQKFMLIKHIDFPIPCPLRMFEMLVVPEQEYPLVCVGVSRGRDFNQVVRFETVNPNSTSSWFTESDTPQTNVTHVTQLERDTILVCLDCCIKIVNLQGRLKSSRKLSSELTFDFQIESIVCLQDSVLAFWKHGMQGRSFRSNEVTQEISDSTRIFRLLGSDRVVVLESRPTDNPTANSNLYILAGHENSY

[3] = molecular target: T5, General transcription and DNA repair factor IIH helicase subunit XPD (Homo sapiens, UniProt P18074); settings: read-out: Kd apparent; k-562, colo 205, sk-n-be(2) and mv-4-11
T5 sequence (P18074 whole entry): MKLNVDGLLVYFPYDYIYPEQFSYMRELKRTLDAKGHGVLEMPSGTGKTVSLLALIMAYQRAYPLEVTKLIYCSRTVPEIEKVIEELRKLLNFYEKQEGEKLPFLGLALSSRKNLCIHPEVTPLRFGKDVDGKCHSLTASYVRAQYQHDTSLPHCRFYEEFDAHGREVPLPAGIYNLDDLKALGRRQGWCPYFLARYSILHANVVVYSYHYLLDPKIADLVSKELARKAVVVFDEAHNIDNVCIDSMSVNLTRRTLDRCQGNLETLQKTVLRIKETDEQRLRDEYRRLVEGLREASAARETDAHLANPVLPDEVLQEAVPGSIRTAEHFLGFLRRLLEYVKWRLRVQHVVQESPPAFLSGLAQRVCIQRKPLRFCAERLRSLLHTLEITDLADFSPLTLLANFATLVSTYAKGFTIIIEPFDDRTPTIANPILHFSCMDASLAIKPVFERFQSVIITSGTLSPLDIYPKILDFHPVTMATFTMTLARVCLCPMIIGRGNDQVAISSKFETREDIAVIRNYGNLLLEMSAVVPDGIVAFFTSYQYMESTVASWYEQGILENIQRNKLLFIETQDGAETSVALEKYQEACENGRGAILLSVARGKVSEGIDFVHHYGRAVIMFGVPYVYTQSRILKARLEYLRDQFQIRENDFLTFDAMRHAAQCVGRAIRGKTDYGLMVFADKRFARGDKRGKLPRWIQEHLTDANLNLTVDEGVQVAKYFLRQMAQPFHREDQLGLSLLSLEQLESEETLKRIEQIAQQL
Also: in the data inactive means no Kd found up to 30 µM.

Sequence of Calcium/calmodulin-dependent protein kinase type II subunit delta (Q13557 whole entry): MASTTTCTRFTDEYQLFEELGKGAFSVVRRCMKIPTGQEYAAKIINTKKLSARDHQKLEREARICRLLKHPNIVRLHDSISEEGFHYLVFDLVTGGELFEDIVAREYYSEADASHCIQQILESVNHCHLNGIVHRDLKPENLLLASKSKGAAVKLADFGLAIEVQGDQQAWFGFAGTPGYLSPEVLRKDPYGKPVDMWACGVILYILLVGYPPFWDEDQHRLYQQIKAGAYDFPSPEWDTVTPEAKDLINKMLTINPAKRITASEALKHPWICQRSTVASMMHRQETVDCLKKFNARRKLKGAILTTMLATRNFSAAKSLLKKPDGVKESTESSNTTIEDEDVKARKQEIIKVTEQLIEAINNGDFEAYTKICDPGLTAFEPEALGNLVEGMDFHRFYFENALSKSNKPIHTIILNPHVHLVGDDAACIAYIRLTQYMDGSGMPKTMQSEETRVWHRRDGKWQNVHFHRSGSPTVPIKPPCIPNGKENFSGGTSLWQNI
Sequence of LIM domain kinase 2 (P53671 whole entry, the tested form may be a part): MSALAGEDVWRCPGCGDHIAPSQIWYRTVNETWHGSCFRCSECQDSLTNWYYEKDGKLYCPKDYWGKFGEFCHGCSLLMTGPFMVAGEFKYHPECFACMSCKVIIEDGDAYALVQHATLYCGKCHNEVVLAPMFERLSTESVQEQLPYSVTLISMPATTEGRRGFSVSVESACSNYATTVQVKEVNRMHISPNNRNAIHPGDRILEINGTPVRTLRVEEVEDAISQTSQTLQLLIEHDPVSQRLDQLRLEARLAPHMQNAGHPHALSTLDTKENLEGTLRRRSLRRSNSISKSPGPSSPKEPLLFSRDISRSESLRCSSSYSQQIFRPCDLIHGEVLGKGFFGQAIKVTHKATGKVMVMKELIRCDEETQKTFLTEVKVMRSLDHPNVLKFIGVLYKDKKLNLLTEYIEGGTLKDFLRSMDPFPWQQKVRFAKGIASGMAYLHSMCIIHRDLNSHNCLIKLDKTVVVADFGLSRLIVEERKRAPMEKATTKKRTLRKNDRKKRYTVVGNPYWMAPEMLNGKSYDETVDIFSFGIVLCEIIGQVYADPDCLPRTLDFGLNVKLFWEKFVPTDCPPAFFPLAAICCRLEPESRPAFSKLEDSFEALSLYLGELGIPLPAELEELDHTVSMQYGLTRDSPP

Row | Structure (SMILES) | Kd (Activin receptor type-1) | Kd (Aurora kinase A) | Kd [1] | Kd (dCTP pyrophosphatase 1) | Kd (LIM domain kinase 2) | Kd [2] | Kd [3]
1 | COc1cc(N2CCC(N3CCN(C)CC3)CC2)ccc1Nc1ncnc(Nc2ccccc2S(=O)(=O)C(C)C)n1 [ASP-3026] | > 30 µM (inactive) | > 30 µM (inactive) | 0.704 µM (active) | > 30 µM (inactive) | 5.31 µM (active) | > 30 µM (inactive) | > 30 µM (inactive)
2 | O=c1sn(-c2cccc3ccccc23)c(=O)n1Cc1ccccc1 [TIDEGLUSIB] | > 30 µM (inactive) | > 30 µM (inactive) | > 30 µM (inactive) | > 30 µM (inactive) | > 30 µM (inactive) | > 30 µM (inactive) | > 30 µM (inactive)
3 | CNS(=O)(=O)Nc1nccc(Cc2c(C)c3ccc(Oc4ncccn4)cc3oc2=O)c1F [AVUTOMETINIB] | > 30 µM (inactive) | > 30 µM (inactive) | > 30 µM (inactive) | > 30 µM (inactive) | > 30 µM (inactive) | > 30 µM (inactive) | > 30 µM (inactive)
4 | C[C@@H](Nc1cc(F)cc(F)c1)c1cc(C(=O)N(C)C)cc2c(=O)cc(N3CCOCC3)oc12 [AZD-8186] | > 30 µM (inactive) | > 30 µM (inactive) | > 30 µM (inactive) | > 30 µM (inactive) | > 30 µM (inactive) | > 30 µM (inactive) | > 30 µM (inactive)
5 | Cc1ccc(S(=O)(=O)Nc2nc3ccccc3nc2Nc2ccc3nsnc3c2)cc1 | > 30 µM (inactive) | > 30 µM (inactive) | > 30 µM (inactive) | > 30 µM (inactive) | > 30 µM (inactive) | > 30 µM (inactive) | > 30 µM (inactive)
6 | CN1CCC(CNc2ccc3ncc(-c4cccc(OC(F)(F)F)c4)n3n2)CC1 [SGI-1776] | 0.458 µM (active) | > 30 µM (inactive) | > 30 µM (inactive) | > 30 µM (inactive) | > 30 µM (inactive) | > 30 µM (inactive) | > 30 µM (inactive)
7 | CCCS(=O)(=O)Nc1ccc(F)c(C(=O)c2c[nH]c3ncc(-c4ccc(Cl)cc4)cc23)c1F [VEMURAFENIB] | > 30 µM (inactive) | > 30 µM (inactive) | > 30 µM (inactive) | > 30 µM (inactive) | > 30 µM (inactive) | > 30 µM (inactive) | > 30 µM (inactive)
8 | C=CC(=O)N1CCC(Oc2cc3c(Nc4ccc(Cl)c(Cl)c4F)ncnc3cc2OC)CC1 [POZIOTINIB] | > 30 µM (inactive) | > 30 µM (inactive) | > 30 µM (inactive) | > 30 µM (inactive) | > 30 µM (inactive) | > 30 µM (inactive) | > 30 µM (inactive)
